Results: patent US8791102B2, “Acetanilide sphingosine-1-phosphate receptor antagonists” (Exelixis, Inc., priority 2008, dated 2014)

Biological target: T1, human S1P1 receptors (Homo sapiens, UniProt P21453)
T1 construct: host or cells: HEK293
Experiment: S1P1R antagonist assay (fluorescent membrane potential dye, cAMP readout)
Assay type: cell-based
Conditions: HEK293 cells expressing human S1P1 receptors and CNG channel; 500 nM NECA; S1P1R agonist 10 nM; 90 minutes; read-out: EC50 or IC50 value

T1 sequence (P21453 whole entry): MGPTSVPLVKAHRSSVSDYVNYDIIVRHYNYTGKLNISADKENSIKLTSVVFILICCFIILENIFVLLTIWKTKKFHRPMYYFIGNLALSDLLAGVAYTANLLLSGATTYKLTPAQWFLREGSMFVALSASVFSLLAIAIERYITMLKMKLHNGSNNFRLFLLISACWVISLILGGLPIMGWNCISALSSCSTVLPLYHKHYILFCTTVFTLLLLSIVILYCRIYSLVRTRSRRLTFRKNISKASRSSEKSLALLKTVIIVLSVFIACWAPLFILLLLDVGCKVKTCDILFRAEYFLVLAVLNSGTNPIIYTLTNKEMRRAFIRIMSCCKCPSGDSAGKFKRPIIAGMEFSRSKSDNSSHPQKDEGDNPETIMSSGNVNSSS

IC50 [µM]	Structure (SMILES)
0.3 to 1	COc1ccc(CCC(=O)NC(COCc2ccccc2)C(=O)Nc2ccc(Oc3ccccc3)cc2)cc1OC (stereo not drawn) [Compound 348, N-(2-oxo-1-{[(phenylmethyl)oxy]methyl}-2-{[4-(phenyloxy)phenyl]amino}ethyl)-3-(3,4-dimethoxyphenyl)propanamide]
> 1	COc1ccc(OC)c(CCC(=O)NC(COCc2ccccc2)C(=O)Nc2ccc(Oc3ccccc3)cc2)c1 (stereo not drawn) [Compound 382, N-(2-oxo-1-{[(phenylmethyl)oxy]methyl}-2-{[4-(phenyloxy)phenyl]amino}ethyl)-3-(2,5-dimethoxyphenyl)propanamide]
> 1	O=C(NC(COCc1ccccc1)C(=O)Nc1ccc(Oc2ccccc2)cc1)c1cnccn1 (stereo not drawn) [Compound 351, N-(2-oxo-1-{[(phenylmethyl)oxy]methyl}-2-{[4-(phenyloxy)phenyl]amino}ethyl)pyrazine-2-carboxamide]
0.3 to 1	O=C(Cc1ccccc1Br)NC(COCc1ccccc1)C(=O)Nc1ccc(Oc2ccccc2)cc1 (stereo not drawn) [Compound 301, N-(2-oxo-1-{[(phenylmethyl)oxy]methyl}-2-{[4-(phenyloxy)phenyl]amino}ethyl)-2-bromophenylacetamide]
0.3 to 1	O=C(NC(COCc1ccccc1)C(=O)Nc1ccc(Oc2ccccc2)cc1)c1cccc2cccnc12 (stereo not drawn) [Compound 357, N-(2-oxo-1-{[(phenylmethyl)oxy]methyl}-2-{[4-(phenyloxy)phenyl]amino}ethyl)quinoline-8-carboxamide]
> 1	O=C(NC(COCc1ccccc1)C(=O)Nc1ccc(Oc2ccccc2)cc1)c1ccc(Cl)cc1 (stereo not drawn) [Compound 276, 4-chloro-N-(2-oxo-1-{[(phenylmethyl)oxy]methyl}-2-{[4-(phenyloxy)phenyl]amino}ethyl)benzamide]
0.3 to 1	CCCCC(C)C(=O)NC(COCc1ccccc1)C(=O)Nc1ccc(Oc2ccccc2)cc1 (stereo not drawn) [Compound 346, 2-methyl-N-(2-oxo-1-{[(phenylmethyl)oxy]methyl}-2-{[4-(phenyloxy)phenyl]amino}ethyl)hexanamide]
0.3 to 1	O=C(COc1ccc(Cl)c(Cl)c1)NC(COCc1ccccc1)C(=O)Nc1ccc(Oc2ccccc2)cc1 (stereo not drawn) [Compound 370, N-(2-oxo-1-{[(phenylmethyl)oxy]methyl}-2-{[4-(phenyloxy)phenyl]amino}ethyl)-2-(3,4-dichlorophenoxy)acetamide]
> 1	CCOc1ccc(C(=O)NC(COCc2ccccc2)C(=O)Nc2ccc(Oc3ccccc3)cc2)cc1 (stereo not drawn) [Compound 281, 4-(ethyloxy)-N-(2-oxo-1-{[(phenylmethyl)oxy]methyl}-2-{[4-(phenyloxy)phenyl]amino}ethyl)benzamide]
> 1	O=C(NC(COCc1ccccc1)C(=O)Nc1ccc(Oc2ccccc2)cc1)c1cc2ccccc2o1 (stereo not drawn) [Compound 366, N-(2-oxo-1-{[(phenylmethyl)oxy]methyl}-2-{[4-(phenyloxy)phenyl]amino}ethyl)-1-benzofuran-2-carboxamide]
> 1	CCCCCC(=O)NC(COCc1ccccc1)C(=O)Nc1ccc(Oc2ccccc2)cc1 (stereo not drawn) [Compound 295, N-(2-oxo-1-{[(phenylmethyl)oxy]methyl}-2-{[4-(phenyloxy)phenyl]amino}ethyl)hexanamide]
> 1	COCCOCCOCC(=O)NC(COCc1ccccc1)C(=O)Nc1ccc(Oc2ccccc2)cc1 (stereo not drawn) [Compound 315, N-(2-oxo-1-{[(phenylmethyl)oxy]methyl}-2-{[4-(phenyloxy)phenyl]amino}ethyl)-2-[2-(methoxy)ethoxy]ethoxyacetamide]
> 1	COc1cc(OC)cc(C(=O)NC(COCc2ccccc2)C(=O)Nc2ccc(Oc3ccccc3)cc2)c1 (stereo not drawn) [Compound 316, 3,5-bis(methyloxy)-N-(2-oxo-1-{[(phenylmethyl)oxy]methyl}-2-{[4-(phenyloxy)phenyl]amino}ethyl)benzamide]
> 1	O=C(COc1ccc(F)cc1)NC(COCc1ccccc1)C(=O)Nc1ccc(Oc2ccccc2)cc1 (stereo not drawn) [Compound 368, N-(2-oxo-1-{[(phenylmethyl)oxy]methyl}-2-{[4-(phenyloxy)phenyl]amino}ethyl)-2-(4-fluorophenoxy)acetamide]
> 1	COc1ccc(CCCC(=O)NC(COCc2ccccc2)C(=O)Nc2ccc(Oc3ccccc3)cc2)cc1OC (stereo not drawn) [Compound 320, 4-[3,4-bis(methyloxy)phenyl]-N-(2-oxo-1-{[(phenylmethyl)oxy]methyl}-2-{[4-(phenyloxy)phenyl]amino}ethyl)butanamide]

The next lines start with the molecule.

Structure (SMILES)	IC50 [µM]
O=C(Nc1ccc(Oc2ccc(F)cc2)cc1)[C@@H]1C[C@@H](Cc2ccc(F)cc2Cl)CN1C(=O)Cn1cncn1 [Compound 9, (2S,4R)-1-(2-(1H-1,2,4-triazol-1-yl)acetyl)-4-(2-chloro-4-fluorobenzyl)-N-(4-(4-fluorophenoxy)phenyl)pyrrolidine-2-carboxamide]	≤ 0.3
O=C(Nc1ccc(Oc2ccc(F)cc2)cc1)[C@@H]1C[C@H](NCc2ccccc2)CN1C(=O)Cn1cncn1 [Compound 80, (2S,4S)-1-(2-(1H-1,2,4-triazol-1-yl)acetyl)-4-(benzylamino)-N-(4-(4-fluorophenoxy)phenyl)pyrrolidine-2-carboxamide]	0.3 to 1
CC(C)(C(=O)N[C@@H](COCc1ccc(F)cc1)C(=O)Nc1ccc(Oc2ccc(F)cc2)cc1)c1c[nH]cn1 [Compound 161, (S)-2-(2-(1H-imidazol-4-yl)-2-methylpropanamido)-3-(4-fluorobenzyloxy)-N-(4-(4-fluorophenoxy)phenyl)propanamide]	≤ 0.3
CCOCCC(=O)N1C[C@H](Cc2ccccc2)C[C@H]1C(=O)Nc1ccc(Oc2ccc(F)cc2)cc1 [Compound 86, (2S,4R)-4-benzyl-1-(3-ethoxypropanoyl)-N-(4-(4-fluorophenoxy)phenyl)pyrrolidine-2-carboxamide]	≤ 0.3
CC/C=C/CC(=O)N[C@@H](COCc1ccccc1)C(=O)Nc1ccc(Oc2ccc(F)cc2)cc1 [Compound 232, (S,E)-N-(3-(benzyloxy)-1-(4-(4-fluorophenoxy)phenylamino)-1-oxopropan-2-yl)hex-3-enamide]	> 1
COc1cccc(C[C@@H]2C[C@@H](C(=O)Nc3ccc(Oc4ccc(F)cc4)cc3)N(C(=O)Cn3nccn3)C2)c1 [Compound 69, (2S,4R)-1-(2-(2H-1,2,3-triazol-2-yl)acetyl)-N-(4-(4-fluorophenoxy)phenyl)-4-(3-methoxybenzyl)pyrrolidine-2-carboxamide]	≤ 0.3
O=C(Nc1ccc(Oc2ccc(F)cc2)cc1)[C@@H]1C[C@@H](N2Cc3ccccc3C2)CN1C(=O)Cn1cncn1 [Compound 260, (2S,4R)-1-(2-(1H-1,2,4-triazol-1-yl)acetyl)-N-(4-(4-fluorophenoxy)phenyl)-4-(isoindolin-2-yl)pyrrolidine-2-carboxamide]	0.3 to 1
O=C(Nc1ccc(Oc2ccccc2)cc1)C(COCc1ccccc1)NC(=O)[C@H](O)c1ccccc1Cl (stereo partly drawn) [Compound 24, 3-(benzyloxy)-2-((R)-2-(2-chlorophenyl)-2-hydroxyacetamido)-N-(4-phenoxyphenyl)propanamide]	> 1
Nc1nc(C(F)(F)F)nn1CC(=O)N1C[C@H](Cc2ccccc2)C[C@H]1C(=O)Nc1ccc(Oc2ccc(F)cc2)cc1 [Compound 11, (2S,4R)-1-(2-(5-amino-3-(trifluoromethyl)-1H-1,2,4-triazol-1-yl)acetyl)-4-benzyl-N-(4-(4-fluorophenoxy)phenyl)pyrrolidine-2-carboxamide]	≤ 0.3
COC(=O)C1CCN(CC(=O)N[C@@H](COCc2ccccc2)C(=O)Nc2ccc(Oc3ccc(F)cc3)cc2)CC1 [Compound 238, (S)-methyl 1-(2-(3-(benzyloxy)-1-(4-(4-fluorophenoxy)phenylamino)-1-oxopropan-2-ylamino)-2-oxoethyl)piperidine-4-carboxylate]	0.3 to 1
O=C(NC(COCc1ccccc1)C(=O)Nc1ccc(Oc2ccccc2)cc1)C1Cc2ccccc2C1 (stereo not drawn) [Compound 188, N-(3-(benzyloxy)-1-oxo-1-(4-phenoxyphenylamino)propan-2-yl)-2,3-dihydro-1H-indene-2-carboxamide]	0.3 to 1
O=C(Nc1ccc(Oc2ccc(F)cc2)cc1)[C@@H]1C[C@@H](Cc2ccc(F)cc2F)CN1C(=O)Cn1cncn1 [Compound 53, (2S,4R)-1-(2-(1H-1,2,4-triazol-1-yl)acetyl)-4-(2,4-difluorobenzyl)-N-(4-(4-fluorophenoxy)phenyl)pyrrolidine-2-carboxamide]	≤ 0.3
Cc1cc(F)ccc1C[C@@H]1C[C@@H](C(=O)Nc2ccc(Oc3ccc(F)cc3)cc2)N(C(=O)Cn2nccn2)C1 [Compound 7, (2S,4R)-1-(2-(2H-1,2,3-triazol-2-yl)acetyl)-4-(4-fluoro-2-methylbenzyl)-N-(4-(4-fluorophenoxy)phenyl)pyrrolidine-2-carboxamide]	≤ 0.3
CC(=O)Oc1ccc(C(=O)NC(COCc2ccccc2)C(=O)Nc2ccc(Oc3ccccc3)cc2)cc1 (stereo not drawn) [Compound 17, 4-(3-(benzyloxy)-1-oxo-1-(4-phenoxyphenylamino)propan-2-ylcarbamoyl)phenyl acetate]	> 1
O=C(CN1CCCC2CCCCC21)N[C@@H](COCc1ccccc1)C(=O)Nc1ccc(Oc2ccc(F)cc2)cc1 (stereo partly drawn) [Compound 45, (2S)-3-(benzyloxy)-N-(4-(4-fluorophenoxy)phenyl)-2-(2-(octahydroquinolin-1(2H)-yl)acetamido)propanamide]	> 1
O=C(Nc1ccc(Oc2ccc(F)cc2)cc1)[C@@H]1C[C@@H](Cc2cccc(F)c2)CN1C(=O)Cn1cncn1 [Compound 51, (2S,4R)-1-(2-(1H-1,2,4-triazol-1-yl)acetyl)-4-(3-fluorobenzyl)-N-(4-(4-fluorophenoxy)phenyl)pyrrolidine-2-carboxamide]	≤ 0.3
O=C(Nc1ccc(Oc2ccc(F)cc2)cc1)[C@@H]1C[C@@H](Cc2ccc(F)cc2F)CN1C(=O)Cn1nccn1 [Compound 52, (2S,4R)-1-(2-(2H-1,2,3-triazol-2-yl)acetyl)-4-(2,4-difluorobenzyl)-N-(4-(4-fluorophenoxy)phenyl)pyrrolidine-2-carboxamide]	≤ 0.3
COc1ccc(C(=O)NC(COCc2ccccc2)C(=O)Nc2ccc(Oc3ccccc3)cc2)cc1 (stereo not drawn) [Compound 270, 4-(methyloxy)-N-(2-oxo-1-{[(phenylmethyl)oxy]methyl}-2-{[4-(phenyloxy)phenyl]amino}ethyl)benzamide]	> 1
